Source: the NIST ThermoML archive (doi:10.1021/je025538u)
± gives the expanded uncertainty stated by the source.

Tests used:
[1] = cn = amount concentration of the nth substance listed, in mol/dm3; settings: 101.3 kPa, Liquid
[2] = 101.33 kPa, Liquid

CCCCCCCCCCCCCCCC(=O)O [hexadecanoic acid] + CCC(C)O
[1]
Settings	mass density, 293.15 K [kg/m3]	mass density, 303.15 K [kg/m3]	mass density, 313.15 K [kg/m3]	mass density, 333.15 K [kg/m3]	viscosity, 293.15 K [mPa·s]	viscosity, 303.15 K [mPa·s]	viscosity, 313.15 K [mPa·s]	viscosity, 333.15 K [mPa·s]
c1 = 0.01	807.66 ± 1.6	799.68 ± 1.7	792.63 ± 1.8	–	3.53 ± 0.16	2.464 ± 0.11	1.751 ± 0.082	–
c1 = 0.05	807.67 ± 1.6	800.09 ± 1.7	792.74 ± 1.8	782.3 ± 2.1	3.616 ± 0.16	2.499 ± 0.11	1.789 ± 0.083	1.09 ± 0.053
c1 = 0.1	809.21 ± 1.6	801.34 ± 1.7	794.66 ± 1.8	782.9 ± 2.1	3.613 ± 0.16	2.512 ± 0.11	1.808 ± 0.084	1.08 ± 0.053
c1 = 0.1501	810.16 ± 1.5	802.89 ± 1.7	795.01 ± 1.8	783.19 ± 2.1	3.7 ± 0.16	2.585 ± 0.12	1.85 ± 0.086	1.13 ± 0.055
c1 = 0.2001	810.6 ± 1.6	802.96 ± 1.7	795.11 ± 1.8	783.51 ± 2.1	3.828 ± 0.17	2.665 ± 0.12	1.921 ± 0.089	1.14 ± 0.056
c1 = 0.3501	813.04 ± 1.5	806.24 ± 1.7	799.34 ± 1.8	787.5 ± 2.2	4.056 ± 0.18	2.834 ± 0.13	2.045 ± 0.094	1.27 ± 0.061

CCCCCCCCCCCC(=O)O [dodecanoic acid] + CCC(C)O
[1]
Settings	mass density, 293.15 K [kg/m3]	mass density, 303.15 K [kg/m3]	mass density, 313.15 K [kg/m3]	mass density, 333.15 K [kg/m3]	viscosity, 293.15 K [mPa·s]	viscosity, 303.15 K [mPa·s]	viscosity, 313.15 K [mPa·s]	viscosity, 333.15 K [mPa·s]
c1 = 0.0103	806.38 ± 1.5	798.71 ± 1.7	791.02 ± 1.8	778.39 ± 2.1	3.58 ± 0.16	2.547 ± 0.12	1.81 ± 0.084	1.05 ± 0.052
c1 = 0.05	807.27 ± 1.5	800.23 ± 1.7	793.39 ± 1.8	779.62 ± 2.1	3.665 ± 0.16	2.548 ± 0.12	1.818 ± 0.085	1.04 ± 0.051
c1 = 0.1003	807.29 ± 1.5	800.56 ± 1.7	794.11 ± 1.8	780.76 ± 2.1	3.7 ± 0.16	2.573 ± 0.12	1.851 ± 0.086	1.07 ± 0.053
c1 = 0.15	808.85 ± 1.5	801.14 ± 1.7	794.51 ± 1.8	782 ± 2.1	3.688 ± 0.16	2.585 ± 0.12	1.865 ± 0.087	1.08 ± 0.053
c1 = 0.2001	808.76 ± 1.5	801.85 ± 1.7	794.64 ± 1.8	782.9 ± 2.1	3.744 ± 0.17	2.624 ± 0.12	1.877 ± 0.087	1.1 ± 0.054
c1 = 0.35	812.86 ± 1.6	805.19 ± 1.7	797.47 ± 1.8	785.3 ± 2.1	3.841 ± 0.17	2.704 ± 0.12	1.951 ± 0.09	1.15 ± 0.056

CCCCCCCCCCCCCCCCCC(=O)O [octadecanoic acid] + CCC(C)O
[1]
Settings	mass density, 293.15 K [kg/m3]	mass density, 303.15 K [kg/m3]	mass density, 313.15 K [kg/m3]	mass density, 333.15 K [kg/m3]	viscosity, 293.15 K [mPa·s]	viscosity, 303.15 K [mPa·s]	viscosity, 313.15 K [mPa·s]	viscosity, 333.15 K [mPa·s]
c1 = 0.01	806.45 ± 1.5	798.83 ± 1.7	792.46 ± 1.8	–	3.611 ± 0.16	2.499 ± 0.11	1.766 ± 0.083	–
c1 = 0.05	806.9 ± 1.6	799.7 ± 1.7	792.65 ± 1.8	782.79 ± 2.1	3.679 ± 0.16	2.531 ± 0.12	1.808 ± 0.084	1.09 ± 0.053
c1 = 0.1	813.95 ± 8	806.09 ± 8	796.45 ± 1.8	783.92 ± 2.2	3.795 ± 0.17	2.466 ± 0.11	1.79 ± 0.084	1.1 ± 0.054
c1 = 0.15	810.78 ± 1.6	803.5 ± 1.7	796.91 ± 1.8	784.23 ± 2.1	3.785 ± 0.17	2.627 ± 0.12	1.886 ± 0.088	1.16 ± 0.056
c1 = 0.2	811.62 ± 1.5	804.54 ± 1.7	797.76 ± 1.8	785.41 ± 2.2	3.799 ± 0.17	2.584 ± 0.12	1.881 ± 0.087	1.16 ± 0.056
c1 = 0.3501	814.68 ± 1.6	806.92 ± 1.7	800.5 ± 1.8	788.89 ± 2.2	4.177 ± 0.18	2.919 ± 0.13	2.017 ± 0.093	1.36 ± 0.065

CCC(C)O (stereo not drawn) [butan-2-ol]
[2]
Settings	mass density [kg/m3]	viscosity [mPa·s]
293.15 K	806.6 ± 1.5	3.663 ± 0.16
303.15 K	799.3 ± 1.7	2.527 ± 0.12
313.15 K	792.2 ± 1.8	1.801 ± 0.084
333.15 K	778 ± 4	1.025 ± 0.051
